Like-named read-outs stand apart in the source and are kept apart here.
Biological target: human P2X7 receptor (Homo sapiens (Human), UniProt Q99572)
Experiment: Pore permeation assay (YO PRO dye uptake)
Format: cell-based
Experimental: Agonist-induced pore formation was determined by measuring cellular uptake of YO PRO fluorescence dye in HEK293 transfected with human P2X7 receptor. A HEK293 cell over expressing human P2X7 was harvested using HQTase reagent to detach the cells from T75 cm flask. The harvested cells are centrifuged @1200 rpm for 5 min at room temperature. The viability of cells was determined by Trypan blue dye and the cells are plated @10,000 cell/well in 50 ul volume in a 384W BD Poly lysine coated plate and incubated overnight at 37 C. […] The plate was centrifuged at 1000 rpm for 5 seconds and incubated at room temperature for 30 minutes. The uptake of YO PRO dye into the cells was measured using Envision Fluorescence plate reader instrument (Perkin Elmer).

[1] = HEK293 transfected with human P2X7, BzATP 10 uM, YO PRO dye uptake, read-out: hP2X7 IC50

human P2X7 receptor, sequence (Q99572 whole entry): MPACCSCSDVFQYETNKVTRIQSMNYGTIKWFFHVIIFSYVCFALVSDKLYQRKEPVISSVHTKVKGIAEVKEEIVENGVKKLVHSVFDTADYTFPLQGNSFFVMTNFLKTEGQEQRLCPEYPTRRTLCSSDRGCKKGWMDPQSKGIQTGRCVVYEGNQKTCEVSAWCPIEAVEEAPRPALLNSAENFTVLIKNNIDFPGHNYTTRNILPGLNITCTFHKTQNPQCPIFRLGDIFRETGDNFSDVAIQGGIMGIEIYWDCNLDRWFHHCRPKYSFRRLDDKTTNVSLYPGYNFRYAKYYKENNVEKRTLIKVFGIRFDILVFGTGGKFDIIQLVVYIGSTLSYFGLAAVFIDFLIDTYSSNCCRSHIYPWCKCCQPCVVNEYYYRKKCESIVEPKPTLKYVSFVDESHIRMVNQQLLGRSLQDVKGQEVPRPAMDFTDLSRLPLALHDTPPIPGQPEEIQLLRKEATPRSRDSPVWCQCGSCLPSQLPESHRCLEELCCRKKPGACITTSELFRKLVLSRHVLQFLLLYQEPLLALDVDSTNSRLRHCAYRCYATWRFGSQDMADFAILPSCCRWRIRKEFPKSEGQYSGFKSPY

| Compound | IC50 [nM] | IC50 [1] [nM] |
| --- | --- | --- |
| O=C(NCC1CCC(F)(F)CC1)c1cn(C2CCCO2)c2cccc(Cl)c12 (stereo not shown) [Compound 99, 4-chloro-N-((4,4-difluorocyclohexyl)methyl)-1-(tetrahydrofuran-2-yl)-1H-indole-3-carboxamide] | 101 to 500 |  |
| O=C(NCC1(O)CCCC(C(F)(F)F)C1)c1cn(CC2CCCO2)c2cccc(Cl)c12 (stereo not shown) [Compound 136, 4-chloro-N-((1-hydroxy-3-(trifluoromethyl)cyclohexyl)methyl)-1-((tetrahydrofuran-2-yl)methyl)-1H-indole-3-carboxamide] |  | > 1000 |
| CC1CC(O)(CNC(=O)c2cn(C3CCCO3)c3cccc(Cl)c23)CCC1(F)F (stereo not shown) [Compound 97, 4-chloro-N-((4,4-difluoro-1-hydroxy-3-methylcyclohexyl)methyl)-1-(tetrahydrofuran-2-yl)-1H-indole-3-carboxamide] | 101 to 500 |  |
| COCCn1cc(C(=O)NCc2ccco2)c2c(Cl)cccc21 [Compound 28, 4-Chloro-1-(2-methoxy-ethyl)-1H-indole-3-carboxylic acid (furan-2-ylmethyl)-amide] |  | > 1000 |
| O=C(NCC1(O)CCCC(C(F)(F)F)C1)c1cn(C2COC2)c2cccc(Cl)c12 (stereo not shown) [Compound 47, 4-chloro-N-((1-hydroxy-3-(trifluoromethyl)cyclohexyl)methyl)-1-(oxetan-3-yl)-1H-indole-3-carboxamide] |  | > 1000 |
| O=C(NCCC(F)(F)F)c1cn(C2COC2)c2cccc(Cl)c12 [Compound 77, 4-Chloro-1-oxetan-3-yl-1H-indole-3-carboxylic acid (3,3,3-trifluoro-propyl)-amide] |  | > 1000 |
| CC(C)(CNC(=O)c1cn(C2CCOC2)c2cccc(Cl)c12)C1CCCC1 (stereo not shown) [Compound 103, 4-Chloro-1-(tetrahydro-furan-3-yl)-1H-indole-3-carboxylic acid (2-cyclopentyl-2-methyl-propyl)-amide] | 101 to 500 |  |
| CC1(CCNC(=O)c2cn(C3COC3)c3cccc(Cl)c23)OCCO1 [Compound 71, 4-Chloro-1-oxetan-3-yl-1H-indole-3-carboxylic acid [2-(2-methyl-dioxolan-2-yl)-ethyl]-amide] |  | > 1000 |
| O=C(NCC1CCC(F)(F)CC1)c1cn(C2CC3(CNC3)C2)c2cccc(Cl)c12 (stereo not shown) [Compound 172, 4-chloro-N-((4,4-difluorocyclohexyl)methyl)-1-(2-azaspiro[3.3]heptan-6-yl)-1H-indole-3-carboxamide] | 500 to 999 |  |
| COCCn1cc(C(=O)NC[C@]2(O)CCC[C@H](C)C2)c2c(Cl)cccc21 [Compound 14, 4-Chloro-1-(2-methoxy-ethyl)-1H-indole-3-carboxylic acid ((1S,3S)-1-hydroxy-3-methyl-cyclohexylmethyl)-amide] | 10 to 100 |  |
| O=C(N[C@@H](CO)C1CCCCC1)c1cn(C2COC2)c2cccc(Cl)c12 [Compound 63, 4-Chloro-1-oxetan-3-yl-1H-indole-3-carboxylic acid ((R)-1-cyclohexyl-2-hydroxy-ethyl)-amide] |  | > 1000 |
| CN(C)C(CNC(=O)c1cn(C2CCOC2)c2cccc(Cl)c12)C1CCCCC1 (stereo not shown) [Compound 111, 4-Chloro-1-(tetrahydro-furan-3-yl)-1H-indole-3-carboxylic acid (2-cyclohexyl-2-dimethylamino-ethyl)-amide] |  | > 1000 |
| COCCn1cc(C(=O)NCc2ccccc2F)c2c(Cl)cccc21 [Compound 25, 4-Chloro-1-(2-methoxy-ethyl)-1H-indole-3-carboxylic acid 2-fluoro-benzylamide] | 500 to 999 |  |
| 4-Chloro-1-(tetrahydro-furan-3-yl)-1H-indole-3-carboxylic acid (2-cyclopentyl-2-hydroxy-propyl)-amide [Compound 102] |  | > 1000 |
| O=C(NC(C1CCCCC1)C(F)(F)F)c1cn(C2COC2)c2cccc(Cl)c12 (stereo not shown) [Compound 43, 4-chloro-N-(1-cyclohexyl-2,2,2-trifluoroethyl)-1-(oxetan-3-yl)-1H-indole-3-carboxamide] |  | > 1000 |
| COCCn1cc(C(=O)NCCC2(O)CCCC2)c2c(Cl)cccc21 [Compound 16, 4-Chloro-1-(2-methoxy-ethyl)-1H-indole-3-carboxylic acid [2-(1-hydroxy-cyclopentyl)-ethyl]-amide] | 500 to 999 |  |
| O=C(NC(c1cccs1)C1CCCCC1)c1cn(C2COC2)c2cccc(Cl)c12 (stereo not shown) [Compound 60, 4-Chloro-1-oxetan-3-yl-1H-indole-3-carboxylic acid (cyclohexyl-thiophen-2-yl-methyl)-amide] |  | > 1000 |
| O=C(NC(CCO)C1CCCCC1)c1cn(C2CCOC2)c2cccc(Cl)c12 (stereo not shown) [Compound 110, 4-Chloro-1-(tetrahydro-furan-3-yl)-1H-indole-3-carboxylic acid (1-cyclohexyl-3-hydroxy-propyl)-amide] | 101 to 500 |  |
| CC(C)(CNC(=O)c1cn(C2COC2)c2cccc(Cl)c12)C1CCCC1 [Compound 50, 4-Chloro-1-oxetan-3-yl-1H-indole-3-carboxylic acid (2-cyclopentyl-2-methyl-propyl)-amide] | 101 to 500 |  |

| Compound | IC50 [nM] | IC50 [1] [nM] |
| --- | --- | --- |
| CC(C)(NC(=O)c1cn(C2COC2)c2cccc(Cl)c12)[C@]12C[C@H]3C[C@H](C[C@H](C3)C1)C2 [Compound 54, 4-Chloro-1-oxetan-3-yl-1H-indole-3-carboxylic acid (1-adamantan-1-yl-1-methyl-ethyl)-amide] |  | 101 to 500 |
| CC1CC(O)(CNC(=O)c2cn(C3COC3)c3cccc(Cl)c23)CCC1(F)F (stereo not shown) [Compound 46, 4-chloro-N-((4,4-difluoro-1-hydroxy-3-methylcyclohexyl)methyl)-1-(oxetan-3-yl)-1H-indole-3-carboxamide] | 101 to 500 |  |
| COCCn1cc(C(=O)NCc2nc3ccccc3s2)c2c(Cl)cccc21 [Compound 31, N-(benzo[d]thiazol-2-ylmethyl)-4-chloro-1-(2-methoxyethyl)-1H-indole-3-carboxamide] |  | > 1000 |
| O=C(N[C@@H](C1CCCCC1)C(F)(F)F)c1cn(C2COC2)c2cccc(Cl)c12 [Compound 52, 4-Chloro-1-oxetan-3-yl-1H-indole-3-carboxylic acid ((S)-1-cyclohexyl-2,2,2-trifluoro-ethyl)-amide] | 500 to 999 |  |
| O=C(NCC(F)F)c1cn(C2COC2)c2cccc(Cl)c12 [Compound 76, 4-Chloro-1-oxetan-3-yl-1H-indole-3-carboxylic acid (2,2-difluoro-ethyl)-amide] | > 1000 |  |
| COCCn1cc(C(=O)NCc2ccc(C(F)(F)F)cc2)c2c(Cl)cccc21 [Compound 26, 4-Chloro-1-(2-methoxy-ethyl)-1H-indole-3-carboxylic acid 4-trifluoro methyl-benzylamide] |  | > 1000 |
| CCOC(C)CNC(=O)c1cn(C2COC2)c2cccc(Cl)c12 (stereo not shown) [Compound 78, 4-Chloro-1-oxetan-3-yl-1H-indole-3-carboxylic acid (2-ethoxy-propyl)-amide] |  | > 1000 |
| CC(O)(CNC(=O)c1cn(C2COC2)c2cccc(Cl)c12)C1CCCC1 (stereo not shown) [Compound 49, 4-Chloro-1-oxetan-3-yl-1H-indole-3-carboxylic acid (2-cyclopentyl-2-hydroxy-propyl)-amide] | 500 to 999 |  |
| O=C(NCC1(O)CCC(F)(F)CC1)c1cn(C2CCOC2)c2cccc(Cl)c12 (stereo not shown) [Compound 104, 4-Chloro-1-(tetrahydro-furan-3-yl)-1H-indole-3-carboxylic acid (4,4-difluoro-1-hydroxy-cyclohexylmethyl)-amide] | 101 to 500 |  |
| COCCn1cc(C(=O)NCc2cccc3c2OCCO3)c2c(Cl)cccc21 [Compound 23, 4-Chloro-1-(2-methoxy-ethyl)-1H-indole-3-carboxylic acid (2,3-dihydro-benzo[1,4]dioxin-5-ylmethyl)-amide] |  | > 1000 |
| COCCn1cc(C(=O)NCc2ccccc2C(F)(F)F)c2c(Cl)cccc21 [Compound 24, 4-Chloro-1-(2-methoxy-ethyl)-1H-indole-3-carboxylic acid 2-trifluoromethyl-benzylamide] | 500 to 999 |  |
| COCCn1cc(C(=O)NC2COc3ccccc3C2)c2c(Cl)cccc21 (stereo not shown) [Compound 29, 4-Chloro-1-(2-methoxy-ethyl)-1H-indole-3-carboxylic acid chroman-3-ylamide] | 101 to 500 |  |
| O=C(NC1(C2CCCCC2)CC1)c1cn(C2COC2)c2cccc(Cl)c12 [Compound 55, 4-Chloro-1-oxetan-3-yl-1H-indole-3-carboxylic acid (1-cyclohexyl-cyclopropyl)-amide] | 101 to 500 |  |
| O=C(NCC1CCC(F)(F)CC1)c1cn(CCC(F)F)c2cccc(Cl)c12 [Compound 11, 4-Chloro-1-(3,3-difluoro-propyl)-1H-indole-3-carboxylic acid (4,4-di fluoro-cyclohexyl methyl)-amide] | 10 to 100 |  |
| COCCn1cc(C(=O)NC[C@@]2(O)CCC[C@@H](C)C2)c2c(Cl)cccc21 [Compound 15, 4-Chloro-1-(2-methoxy-ethyl)-1H-indole-3-carboxylic acid ((1R,3R)-1-hydroxy-3-methyl-cyclohexylmethyl)-amide] | 10 to 100 |  |
| O=C(NCC1(O)CCCC(F)(F)C1)c1cn(CCN2CCCCC2)c2cccc(Cl)c12 (stereo not shown) [Compound 192, 4-chloro-N-((3,3-difluoro-1-hydroxycyclohexyl)methyl)-1-(2-(piperidin-1-yl)ethyl)-1H-indole-3-carboxamide] | 101 to 500 |  |
| COCCn1cc(C(=O)NCc2ccc3c(c2)OCO3)c2c(Cl)cccc21 [Compound 27, 4-Chloro-1-(2-methoxy-ethyl)-1H-indole-3-carboxylic acid (benzo [1,3]dioxol-5-ylmethyl)-amide] |  | > 1000 |
| O=C(NCC1(O)CCCC2(CC2)C1)c1cn(C2COC2)c2cccc(Cl)c12 (stereo not shown) [Compound 57, 4-chloro-N-((5-hydroxyspiro[2.5]octan-5-yl)methyl)-1-(oxetan-3-yl)-1H-indole-3-carboxamide] | 101 to 500 |  |

From US10323000B2, “Indole derivatives and their use in neurodegenerative diseases” (priority 2014, dated 2019)
